These results are taken from PMC12742849 (Protein & Cell, 2025).

The target in the test is RibD-enolase complex (RibD activity) (Francisella tularensis, UniProt A0Q460). As to conditions: substrate generated in situ from GTP by E. coli RibA; with and without PEP.

`Nc1nc(N[C@@H]2O[C@H](COP(=O)(O)O)[C@@H](O)[C@H]2O)c(N)c(=O)[nH]1` [2,5-diamino-6-ribosyl-amino-4(3H) pyrimidinedione 5′-phosphate]: the “fluorescence of the RibD reaction product (ex 408 nm, em 485 nm)” value is listed as “Results showed similar activity for both, with PEP having the same effect on each”.
